Activity calls are given as the source filed them. How the calls were made is not given here.
Test system: CCRIS mutagenicity, Ames/micronucleus/aberration tests
Assay: CCRIS mutagenicity studies

Measured: mutagenic call

C=O
active: End Point: IN VITRO CHROMOSOMAL ABERRATIONS, Test System: SYRIAN HAMSTER EMBRYO (SHE) CELLS, Metabolic Activation: NONE active; positive (structural changes) | End Point: In vitro chromosomal aberrations, Test System: Chinese hamster ovary (CHO) cells, Metabolic Activation: None active; positive | End Point: In vitro chromosomal aberrations, Test System: Chinese hamster ovary (CHO) cells, Metabolic Activation: S-9 active; positive | Test System: AMES SALMONELLA TYPHIMURIUM, Strain/Indicator: TA97, Metabolic Activation: NONE, Method: STANDARD PLATE active; positive | Test System: AMES SALMONELLA TYPHIMURIUM, Strain/Indicator: TA98, Metabolic Activation: RAT, LIVER, S-9, AROCLOR 1254, Method: PREINCUBATION active; positive | Test System: AMES SALMONELLA TYPHIMURIUM, Strain/Indicator: TA98, Metabolic Activation: RAT, LIVER, S-9, AROCLOR 1254, Method: STANDARD PLATE active; positive | Test System: AMES SALMONELLA TYPHIMURIUM, Strain/Indicator: TA100, Metabolic Activation: MOUSE LIVER S-9, AROCLOR 1254, Method: PREINCUBATION active; positive | Test System: AMES SALMONELLA TYPHIMURIUM, Strain/Indicator: TA100, Metabolic Activation: NONE, Method: SUSPENSION active; positive | Test System: AMES SALMONELLA TYPHIMURIUM, Strain/Indicator: TA100, Metabolic Activation: RAT LIVER S-9, AROCLOR 1254, Method: PREINCUBATION active; positive | Test System: AMES SALMONELLA TYPHIMURIUM, Strain/Indicator: TA100, Metabolic Activation: RAT, LIVER, S-9, AROCLOR 1254, Method: STANDARD PLATE active; positive | Test System: AMES SALMONELLA TYPHIMURIUM, Strain/Indicator: TA100, Metabolic Activation: RAT, LIVER, S-9, AROCLOR 1254, Method: SUSPENSION active; positive | Test System: AMES SALMONELLA TYPHIMURIUM, Strain/Indicator: TA100, Metabolic Activation: RAT, LIVER, S-9, AROCLOR, Method: STANDARD PLATE active; positive | Test System: AMES SALMONELLA TYPHIMURIUM, Strain/Indicator: TA102, Metabolic Activation: NONE, Method: FLUCTUATION TEST active; positive | Test System: AMES SALMONELLA TYPHIMURIUM, Strain/Indicator: TA102, Metabolic Activation: NONE, Method: PREINCUBATION active; positive | Test System: AMES SALMONELLA TYPHIMURIUM, Strain/Indicator: TA104, Metabolic Activation: MOUSE LIVER S-9, AROCLOR 1254, Method: PREINCUBATION active; positive | Test System: AMES SALMONELLA TYPHIMURIUM, Strain/Indicator: TA104, Metabolic Activation: NONE, Method: PREINCUBATION active; positive | Test System: AMES SALMONELLA TYPHIMURIUM, Strain/Indicator: TA104, Metabolic Activation: RAT LIVER S-9, AROCLOR 1254, Method: PREINCUBATION active; positive | Test System: AMES SALMONELLA TYPHIMURIUM, Strain/Indicator: TA104, Metabolic Activation: RAT, LIVER, S-9, AROCLOR 1254, Method: PREINCUBATION active; positive | Test System: AMES SALMONELLA TYPHIMURIUM, Strain/Indicator: TA1537, Metabolic Activation: RAT, LIVER, S-9, AROCLOR 1254, Method: STANDARD PLATE active; positive | Test System: AMES SALMONELLA TYPHIMURIUM, Strain/Indicator: TA2638, Metabolic Activation: NONE, Method: STANDARD PLATE active; positive | Test System: AMES SALMONELLA TYPHIMURIUM, Strain/Indicator: TA2638A, Metabolic Activation: NONE, Method: PREINCUBATION active; positive | Test System: CHINESE HAMSTER OVARY, Strain/Indicator: CHO-K1 (HPRT)/6-THIOGUANINE, Metabolic Activation: NONE, Method: SUSPENSION active; positive | Test System: CHINESE HAMSTER V-79, Strain/Indicator: V-79/6-THIOGUANINE, Metabolic Activation: NONE active; positive | Test System: E. COLI, Strain/Indicator: H/R30R, Metabolic Activation: NONE, Method: PREINCUBATION active; positive | Test System: E. COLI, Strain/Indicator: HS30R UVRA, Metabolic Activation: NONE, Method: PREINCUBATION active; positive | Test System: E. COLI, Strain/Indicator: K12(AB1157) (WILD TYPE), Metabolic Activation: NONE, Method: SUSPENSION/PLATE active; positive | Test System: E. COLI, Strain/Indicator: WP2 (PKM101), Metabolic Activation: NONE, Method: PREINCUBATION active; positive | Test System: E. COLI, Strain/Indicator: WP2, Metabolic Activation: NONE, Method: PREINCUBATION active; positive | Test System: E. COLI, Strain/Indicator: WP2 UVRA (PKM101), Metabolic Activation: NONE, Method: PREINCUBATION active; positive | Test System: E. COLI, Strain/Indicator: WP2 UVRA (PKM101), Metabolic Activation: NONE, Method: STANDARD PLATE active; positive | Test System: E. COLI, Strain/Indicator: WP2 UVRA, Metabolic Activation: NONE, Method: PREINCUBATION active; positive | Test System: MOUSE LYMPHOMA, Strain/Indicator: L5178Y (TK+/TK-), Metabolic Activation: NONE, Method: SUSPENSION/PLATE active; positive
inactive: End Point: In vivo micronucleus, Test System: Peripheral blood erythrocytes, Species: Rat, Strain/Sex: F344/DuCrl / Male, Route: Inhalation inactive; negative | Test System: AMES SALMONELLA TYPHIMURIUM, Strain/Indicator: TA97, Metabolic Activation: NONE, Method: PREINCUBATION inactive; negative | Test System: AMES SALMONELLA TYPHIMURIUM, Strain/Indicator: TA1535, Metabolic Activation: NONE, Method: PREINCUBATION inactive; negative | Test System: AMES SALMONELLA TYPHIMURIUM, Strain/Indicator: TA1535, Metabolic Activation: NONE, Method: STANDARD PLATE inactive; negative | Test System: AMES SALMONELLA TYPHIMURIUM, Strain/Indicator: TA1535, Metabolic Activation: RAT, LIVER, S-9, AROCLOR 1254, Method: PREINCUBATION inactive; negative | Test System: AMES SALMONELLA TYPHIMURIUM, Strain/Indicator: TA1535, Metabolic Activation: RAT, LIVER, S-9, AROCLOR 1254, Method: STANDARD PLATE inactive; negative | Test System: AMES SALMONELLA TYPHIMURIUM, Strain/Indicator: TA1537, Metabolic Activation: NONE, Method: PREINCUBATION inactive; negative | Test System: AMES SALMONELLA TYPHIMURIUM, Strain/Indicator: TA1537, Metabolic Activation: RAT, LIVER, S-9, AROCLOR 1254, Method: PREINCUBATION inactive; negative | Test System: AMES SALMONELLA TYPHIMURIUM, Strain/Indicator: TA1538, Metabolic Activation: NONE, Method: PREINCUBATION inactive; negative | Test System: AMES SALMONELLA TYPHIMURIUM, Strain/Indicator: TA1538, Metabolic Activation: NONE, Method: STANDARD PLATE inactive; negative | Test System: AMES SALMONELLA TYPHIMURIUM, Strain/Indicator: UTH8413, Metabolic Activation: NONE, Method: STANDARD PLATE inactive; negative | Test System: AMES SALMONELLA TYPHIMURIUM, Strain/Indicator: UTH8413, Metabolic Activation: RAT, LIVER, S-9, AROCLOR, Method: STANDARD PLATE inactive; negative | Test System: AMES SALMONELLA TYPHIMURIUM, Strain/Indicator: UTH8414, Metabolic Activation: NONE, Method: STANDARD PLATE inactive; negative | Test System: AMES SALMONELLA TYPHIMURIUM, Strain/Indicator: UTH8414, Metabolic Activation: RAT, LIVER, S-9, AROCLOR, Method: STANDARD PLATE inactive; negative | Test System: CHINESE HAMSTER OVARY, Strain/Indicator: CHO-K1 (HPRT)/6-THIOGUANINE, Metabolic Activation: NONE, Method: SUSPENSION/PLATE inactive; negative | Test System: E. COLI, Strain/Indicator: 016 POLA, Metabolic Activation: NONE, Method: PREINCUBATION inactive; negative | Test System: E. COLI, Strain/Indicator: K12(AB1886) (UVRA), Metabolic Activation: NONE, Method: SUSPENSION/PLATE inactive; negative | Test System: E. COLI, Strain/Indicator: K12(AB2480) (RECA/UVRA), Metabolic Activation: NONE, Method: SUSPENSION/PLATE inactive; negative | Test System: E. COLI, Strain/Indicator: NG30 RECA, Metabolic Activation: NONE, Method: PREINCUBATION inactive; negative

— PubChem BioAssay AID1259407 (Chemical Carcinogenesis Research Information System (CCRIS), 2018)
